Several values for one entry are separate records, joined by “and”; a condition that tells them apart may be missing. Identical values can stand only once.
Test: Extrapolated human dosimetry (OLINDA/EXM, ICRP-89 phantoms)
Protocol: To address inter-animal variability, the TIACs for each source organ were calculated from both the mean nTACs and the nTACs obtainend from fitting the mean ± 1 standard deviation (SD) of the normalized time-activity data, providing upper and lower bounds.
The mice-to-human TIAC extrapolation accounted for species-specific differences in relative source organ masses, m(organ), as compared to the total body weight (WB), for the mice (m) and human (h) models respectively.
The human organ masses, m(organ)h, were obtained from ICRP-89 adult male and female reference phantoms, while the murine organ masses, m(organ)m, were derived from the standard MOBY mouse model. The extrapolated human TIACs, TIACh were entered in the OLINDA/EXM software to compute the absorbed doses to target organs and the effective dose for adult male, female, and gender-averaged human models. […]
The TIACs, for [177Lu]Lu-DOTAGA.Glu.(FAPI)2 and [177Lu]Lu-DO3A.Glu.(FAPI)2, were determined by time integration of the nTACs. To account for the inter-animal variability, the TIACs for each source organ were calculated using both the mean nTACs and the nTACs obtainend from fitting the mean ±1 standard deviation (SD) of the normalized time-activity data. This approach provided the upper and the lower bounds for the estimated TIACs.
The mice-to-human TIAC extrapolation was obtained considering the different (species-specific) relative source organ masses, m(organ), as compared to the total body weight (WB), for the mice (m) and human (h) models respectively.
The human organ masses, m(organ)h, were obtained from the adult male and female reference models phantoms defined in ICRP-89, while the murine organ masses, m(organ)m, were derived from the standard MOBY mouse model. The extrapolated human TIACs values, TIACh, for each source organ were input into the kinetic module of the OLINDA/EXM software (version 2.1, HERMES Medical Solutions AB, Stockholm, Sweden) to compute the absorbed doses to target organs and the effective dose for adult male, female, and gender-averaged human models. […]

[1] = ICRP 89 Adult Female, extrapolated
[2] = ICRP 89 Adult Male, extrapolated

N#C[C@@H]1CC(F)(F)CN1C(=O)CNC(=O)c1ccnc2ccc(OCCCCNC(=O)CC[C@H](NC(=O)CN3CCN(CC(=O)[O-])CCN(CC(=O)[O-])CCN(CC(=O)[O-])CC3)C(=O)NCCCCOc3ccc4nccc(C(=O)NCC(=O)N5CC(F)(F)C[C@H]5C#N)c4c3)cc12.[161Tb+3] [[^161Tb]Tb-DO3A.Glu.(FAPI)2]
Absorbed dose (AD average) Adrenals [1]: 1.39E-02 mGy/Mbq
Absorbed dose (AD average) Brain [1]: 3.68E-02 mGy/Mbq
Absorbed dose (AD average) Breasts [1]: 3.54E-02 mGy/Mbq
Absorbed dose (AD average) Esophagus [1]: 3.67E-02 mGy/Mbq
Absorbed dose (AD average) Eyes [1]: 3.68E-02 mGy/Mbq
Absorbed dose (AD average) Gallbladder Wall [1]: 3.79E-02 mGy/Mbq
Absorbed dose (AD average) Heart Wall [1]: 3.39E-02 mGy/Mbq
Absorbed dose (AD average) Kidneys [1]: 3.48E-02 ± 0.001 mGy/Mbq and 3.48E-02 mGy/Mbq
Absorbed dose (AD average) Left colon [1]: 3.75E-02 mGy/Mbq
Absorbed dose (AD average) Liver [1]: 1.01E-01 ± 0.004 mGy/Mbq and 1.01E-01 mGy/Mbq
Absorbed dose (AD average) Lungs [1]: 5.78E-02 ± 0.01 mGy/Mbq and 5.78E-02 mGy/Mbq
Absorbed dose (AD average) Osteogenic Cells [1]: 8.70E-02 ± 0.003 mGy/Mbq and 8.70E-02 mGy/Mbq
Absorbed dose (AD average) Ovaries [1]: 3.75E-02 mGy/Mbq
Absorbed dose (AD average) Pancreas [1]: 3.59E-02 ± 0.001 mGy/Mbq and 3.59E-02 mGy/Mbq
Absorbed dose (AD average) Rectum [1]: 3.75E-02 mGy/Mbq
Absorbed dose (AD average) Red Marrow [1]: 4.37E-02 ± 0.002 mGy/Mbq and 4.37E-02 mGy/Mbq
Absorbed dose (AD average) Right colon [1]: 3.76E-02 mGy/Mbq
Absorbed dose (AD average) Salivary Glands [1]: 1.22E-01 ± 0.01 mGy/Mbq and 1.22E-01 mGy/Mbq
Absorbed dose (AD average) Small Intestine [1]: 3.72E-02 ± 0.002 mGy/Mbq and 3.72E-02 mGy/Mbq
Absorbed dose (AD average) Spleen [1]: 8.87E-02 ± 0.004 mGy/Mbq and 8.87E-02 mGy/Mbq
Absorbed dose (AD average) Stomach Wall [1]: 3.75E-02 mGy/Mbq
Absorbed dose (AD average) Thymus [1]: 3.72E-02 mGy/Mbq
Absorbed dose (AD average) Thyroid [1]: 3.64E-02 mGy/Mbq
Absorbed dose (AD average) Total Body [1]: 4.70E-02 ± 0.002 mGy/Mbq and 4.70E-02 mGy/Mbq
Absorbed dose (AD average) Urinary Bladder Wall [1]: 3.70E-02 mGy/Mbq
Absorbed dose (AD average) Uterus [1]: 3.73E-02 mGy/Mbq
Effective dose (average) [1]: 4.10E-02
Absorbed dose (AD average) Adrenals [2]: 1.05E-02 mGy/Mbq
Absorbed dose (AD average) Brain [2]: 2.80E-02 mGy/Mbq
Absorbed dose (AD average) Esophagus [2]: 2.84E-02 mGy/Mbq
Absorbed dose (AD average) Eyes [2]: 2.80E-02 mGy/Mbq
Absorbed dose (AD average) Gallbladder Wall [2]: 3.02E-02 mGy/Mbq
Absorbed dose (AD average) Heart Wall [2]: 2.78E-02 mGy/Mbq
Absorbed dose (AD average) Kidneys [2]: 2.84E-02 ± 0.001 mGy/Mbq and 2.84E-02 mGy/Mbq
Absorbed dose (AD average) Left colon [2]: 2.85E-02 mGy/Mbq
Absorbed dose (AD average) Liver [2]: 8.31E-02 ± 0.003 mGy/Mbq and 8.31E-02 mGy/Mbq
Absorbed dose (AD average) Lungs [2]: 4.73E-02 ± 0.01 mGy/Mbq and 4.73E-02 mGy/Mbq
Absorbed dose (AD average) Osteogenic Cells [2]: 8.97E-02 ± 0.003 mGy/Mbq and 8.97E-02 mGy/Mbq
Absorbed dose (AD average) Pancreas [2]: 2.88E-02 ± 0.001 mGy/Mbq and 2.88E-02 mGy/Mbq
Absorbed dose (AD average) Prostate [2]: 2.81E-02 mGy/Mbq
Absorbed dose (AD average) Rectum [2]: 2.84E-02 mGy/Mbq
Absorbed dose (AD average) Red Marrow [2]: 3.45E-02 ± 0.001 mGy/Mbq and 3.45E-02 mGy/Mbq
Absorbed dose (AD average) Right colon [2]: 2.86E-02 mGy/Mbq
Absorbed dose (AD average) Salivary Glands [2]: 1.00E-01 ± 0.01 mGy/Mbq and 1.00E-01 mGy/Mbq
Absorbed dose (AD average) Small Intestine [2]: 2.85E-02 ± 0.001 mGy/Mbq and 2.85E-02 mGy/Mbq
Absorbed dose (AD average) Spleen [2]: 7.27E-02 ± 0.003 mGy/Mbq and 7.27E-02 mGy/Mbq
Absorbed dose (AD average) Stomach Wall [2]: 2.84E-02 mGy/Mbq
Absorbed dose (AD average) Testes [2]: 2.72E-02 mGy/Mbq
Absorbed dose (AD average) Thymus [2]: 2.79E-02 mGy/Mbq
Absorbed dose (AD average) Thyroid [2]: 2.81E-02 mGy/Mbq
Absorbed dose (AD average) Total Body [2]: 3.70E-02 ± 0.002 mGy/Mbq and 3.70E-02 mGy/Mbq
Absorbed dose (AD average) Urinary Bladder Wall [2]: 2.81E-02 mGy/Mbq
Effective dose (average) (ICRP 89 Adult Male, extrapolated, in mSv/MBq (unit assumed)): 2.91E-02
higher tissue doses vs. the 177Lu-labeled analogs (human extrapolation, average over tissues): ~ 38%

Reference: paper PMC12860872, “Preclinical evaluation of DOTAGA.Glu.(FAPI)2 and DO3A.Glu.(FAPI)2 as theranostics with human dosimetry extrapolation to lutetium-177 and terbium-161 analogs” (European Journal of Nuclear Medicine and Molecular Imaging, 2025)
